Assay results as given in patent US6962930B1, “Compounds, compositions and method suitable for amelioration of withdrawal syndromes and withdrawal-induced brain damage” (Lohocla Research Corporation, priority 1997, dated 2005).
Like-named read-outs stand apart in the source and are kept apart here.

Key:
[1] = tested on: ethanol withdrawal-induced seizures in C57BL/6 mice; assay: Ethanol withdrawal-induced seizures; assay type: in vivo; settings: i.p. at 0700, 1100 and 1400 hours; (±)HA-966 3, 10 or 17 mg/kg; 7-Cl kynurenic acid 10, 17 or 30 mg/kg; carbamazepine 17, 30 or 50 mg/kg
Excerpt: Male C57BL/6 mice were housed individually. One group of mice were each given a measured amount of liquid diet (BioServ) containing 6.7% ethanol (v/v) and a second, control group of mice each received the same diet with maltodextrin substituted isocalorically for ethanol, as their sole nutrient source for 7 days. A description of such a test can be found in Grant, K. A., et al., “ETHANOL WITHDRAWAL SEIZURES AND THE NMDA RECEPTOR COMPLEX,” Eur. J. Pharmacol., 176 289–296, (1990), the relevant disclosures of which are incorporated herein by reference. Pair-fed mice were given a volume of liquid diet equal to the average volume that the ethanol-fed mice consumed on the previous day. This treatment regimen produces mice that are functionally tolerant to and physically dependent on ethanol. Beginning at 0700 hours on the eighth day of the diet, ethanol-containing diet was replaced with control liquid diet (“withdrawal”).
Withdrawal seizure severity was assessed by measuring the incidence of handling-induced and spontaneous seizures, which were rated on a rating scale of 0 to 4, modified from a rating scale described by Grant, K. A., et al. in the above cited article. The rating scale was as follows: 0, little or no reaction; 1, slight jerkiness upon handling; 2, excitability increasing in magnitude to a clonic-tonic seizure; 3, spontaneous or instantaneous clonic-tonic seizure; 4, death while in a seizure. The mice were rated for seizure severity at 2, 4, 6, 7, 8, 9, 10, 11, 12 and 24 hours after ethanol withdrawal. Groups of ethanol-fed mice were injected intraperitoneally at 0700, 1100 and 1400 hours with saline, 3, 10 or 17 mg/kg (±)HA-966 (FIG. 5A) or 10, 17 or 30 mg/kg 7-Cl kynurenic acid (FIG. 5B).
Male C57BL/6 mice were fed ethanol in a liquid diet and the withdrawal seizure severity was assessed as described in EXAMPLE 5. Groups of ethanol-fed mice received a single injection (i.p.) of either vehicle (4% Tween-80, 0.5% carboxymethylcellulose in 0.9% saline) alone or of 100 mg/kg DCUK-OMe suspended in the vehicle administered at 0900 hours. The results are presented in FIG. 6A as the median withdrawal scores of vehicle-injected (N=14) or DCUK-OMe injected (N=6) mice in which * denotes P<0.05, statistically compared to vehicle-injected mice, in the Mann-Whitney U test. FIG. 6B presents the same data as the total withdrawal score, defined as the area enclosed by the curve connecting median withdrawal scores plotted against time as in FIG. 6A. The mean total withdrawal scores±SEM for the vehicle-injected group and DCUK-OMe-injected groups are plotted in which * denotes P<0.05, statistically compared to vehicle-injected mice, by the Student t-test.

[2] = target: T1, NR1a/NR2A recombinant receptors (Homo sapiens, UniProt Q05586); assay: NMDA-induced currents in oocytes expressing NR1a/NR2A; assay type: cell-based; settings: 100 μM NMDA, 50 μM DCUKA, increasing glycine up to 100 μM
T1 construct: expressed in transfected cells; host or cells: Xenopus laevis oocytes, nuclear cDNA injection
Protocol: (§1) Oocytes were obtained from Xenopus laevis frogs (Nasco or Xenopus I) kept in aquarium tanks at 19–21° C., on a 12 hr light/dark cycle. Mature females were anesthetized by immersion for approximately 30 min in a 0.12% 3-aminobenzoic acid ethyl ester solution, a small incision was made in the abdominal wall and a piece of ovary was removed and placed in Modified Barth's solution (MBS; in mM) containing 88 NaCl, 1 KCl, 10 HEPES, 0.82 MgSO4, 2.4 NaHCO3, 0.91 CaCl2, 0.33 Ca(NO3)2 (pH 7.5). To facilitate manual dissection of oocytes, a section of ovary was transferred from MBS to a hypertonic buffer containing 108 mM NaCl, 2 mM KCl, 2 mM EDTA, 10 mM HEPES, pH 7.5 and theca and epithelial layers of mature oocytes (stages V and VI) were removed with surgical forceps. The follicular layer was removed by a 10 min immersion in 0.5 mg/ml of collagenase in buffer containing 83 mM NaCl, 2 mM KCl, 1 mM MgCl2 and 5 mM HEPES.
(§2) Human NR1a, NR2A and NR2B cDNAs in pCDNA-1Amp were transformed and amplified in XL-1 Blue cells and purified with the MaxPrep Qiagen kit. Oocytes were injected with cDNA into the nucleus in the following concentrations: NR1a/2A cDNAs 0.75 ng/30 nl 1:1 ratio, NR1a/2B cDNAs 3.0 ng/30 nl: 1:1 ratio. Injections were made with micropipettes (10 μm tip diameter) connected to a Drummond micropipettor attached to a micromanipulator. After injection, oocytes were individually placed in wells of 96-well microtiter plates containing incubation medium (MBS supplemented with 10 mg/l streptomycin, 10,000 U/l penicillin G, 50 mg/l gentamicin, 2 mM sodium pyruvate, 0.5 mM theophylline) that had been sterilized by passage through a […]. Oocytes were incubated at 19° C. for 2 to 4 days after injection.
(§3) Oocytes were placed in a rectangular chamber (approximately […]) and perfused (2 ml/min) with frog Ringer (in mM) containing 115 NaCl, 2.5 KCl, 1.8 CaCl2, 10 HEPES (pH 7.2). […] Control responses were always measured before and after addition of the DCUKA. […] Data are expressed as the % inhibition of the agonist response obtained in the absence of the drug.

[3] = target: voltage-sensitive sodium channels; assay: [3H]BTX binding to rat cortical synaptosomes
[4] = target: T2, strychnine-insensitive glycine binding site on the NMDA receptor (Rattus norvegicus, UniProt P35439); assay: [3H]5,7-DCKA binding to rat cortical membranes; settings: 20 nM [3H]5,7-DCKA
T2 construct: from tissue; host or cells: rat cerebral cortex, crude synaptic (buffy coat) membranes
Protocol: Male Sprague-Dawley rats were killed, their brains removed, and their cerebral cortices dissected and binding of [^3H]5,7-dichlorokynurenate ([^3H]5,7-DCKA) assayed. [^3H]5,7-DCKA binding assays were performed in crude synaptic membranes prepared by a modification of the method of Jones, et al., J. Pharmacol. Methods, 21 161–168 (1989) the relevant disclosures of which are incorporated herein by reference. The pelleted “buffy coat”fraction was obtained by centrifugation and frozen at about −80° C. for at least 18 hours. On the day that the binding assays were performed, the pelleted membranes were resuspended in 50 mM HEPES-KOH buffer (pH 7.8) containing 0.08% TRITON® X-100. After stirring for about 30 min at about 4° C., the membranes were pelleted by recentrifugation and then washed twice by resuspension in buffer and centrifugation.
Binding assays were performed in 0.5 ml volume using 150–200 μg of tissue, 20 nM [^3H]5,7-DCKA and 3–300 μM DCUKA or MeO-DCUKA or 1–100 μM DCUK-OMe (all concentrations are final concentrations in 0.6% dimethyl sulfoxide (DMSO)). Incubations were performed for about 45 min at about 4° C. followed by termination by centrifugation. Bound radioactivity was quantitated by liquid scintillation spectroscopy. Non-specific binding was defined with 1 mM glycine.

[5] = target: T3, NR1a/NR2B recombinant receptors (Homo sapiens, UniProt Q05586); assay: NMDA-induced currents in oocytes expressing NR1a/NR2B; assay type: cell-based; settings: 100 μM NMDA, 50 μM DCUKA, increasing glycine
T3 construct: expressed in transfected cells; host or cells: Xenopus laevis oocytes, nuclear cDNA injection
Protocol: as §1, §2, §3

naive C57BL/6 mice = assay: Accelerating rotarod, C57BL/6 mice; assay type: in vivo; settings: 50 mg/kg i.p., 15 to 120 min after injection
Protocol: Naive C57BL/6 mice were trained to remain on an accelerating rotarod (diameter 3 cm, 0–30 rpm over 5 min) for six consecutive trials. A description of this test for the acute incoordinating/ataxic effects of sedative/hypnotic drugs such as ethanol can be found in Hoffman, P. L., et al., Life Sciences, 41 611–619 (1987), the relevant disclosures of which are incorporated herein by reference.
The amount of time the mice remained on the rotarod during their last trial was used as their “base-line” score. The mice were then treated with saline (n=10) or 50 mg/kg (±)HA-966 (n=5). The length of time the mice remained on the rotarod was redetermined at 15, 30, 60, 90, and 120 min after drug injection (i.p.). Results for each mouse at each time point were expressed as a ratio (percentage) of their pre-injection base-line time.

Swiss-Webster mice = assay: Ethanol-induced loss of righting reflex; assay type: in vivo; settings: i.p. 30 minutes before ethanol; DCUK-OMe 100 mg/kg, DZP 1 mg/kg
Protocol: Swiss-Webster mice were pretreated (i.p.) with 100 mg/kg DCUK-OMe or 1 mg/kg diazepam (DZP) (in 5% Tween-80, 20% Intralipid) 30 minutes before receiving an i.p. administration of ethanol (either 2.3 or 3.2 g/kg, 20% v/v in saline.). The duration of the ethanol-induced loss of righting reflex (defined as the inability of the mouse to right itself when placed on its back in a trough) was measured. […] Since withdrawal signs are many times evident in individuals whose blood ethanol levels are dropping but are far from zero, the DCUK compounds would have an advantage over DZP in that the CNS depressant effects of ethanol would not be accentuated by DCUK compounds if the DCUK compounds are used in an alcohol-intoxicated individual.

naive Swiss-Webster mice = assay: Accelerating rotarod, Swiss-Webster mice; settings: i.p.; DCUK-OMe 100 or 500 mg/kg, diazepam 1 mg/kg, carbamazepine 50 mg/kg
[6] = target: T2, strychnine-insensitive glycine binding site on the NMDA receptor; settings: none* = no displacement at 64 μM carbamazepine; taken from McCabe et al. 1993; cited from earlier work
[7] = tested on: heat shock protein (HSP72) in the hippocampus of C57BL/6 mice; assay: KA-induced increase in HSP72, Western blot; assay type: in vivo; settings: 100 mg/kg i.p. 30 min before KA 30 mg/kg i.p., hippocampus at 24 hours
Protocol: See, for example, Gonzales, M. F. et al., “HEAT SHOCK PROTEINS AS MARKERS OF NEURAL INJURY,” Mol. Brain Res., 6 93–100 (1989), the relevant portions of which are incorporated herein by reference.
Groups of male C57BL/6 mice separately received either (1) no injections (Naive), (2) KA injections (30 mg/kg, i.p.), (3) 100 mg/kg MeO-DCUKA administered intraperitoneally, or (4) a pretreatment of 100 mg/kg MeO-DCUKA administered (vehicle as in Example 9) intraperitoneally about 30 minutes before receiving an injection of KA (30 mg/kg, i.p.). All of the mice were killed 24 hours later, their brains removed and the hippocampus dissected. HSP72 protein levels were determined in sodium dodecylsulfate (SDS)-solubilized hippocampal lysates by SDS-PAGE electrophoretic separation and subsequent Western blot analysis using antibodies specific for HSP72/73 proteins. Immunoreactive bands were visualized on film using enhanced chemiluminescence and quantitated by image analysis.

[8] = depolarizing conditions (135 mM KCl), read-out: IC50 (μM) [3H]BTX binding, values in parentheses
[9] = non-depolarizing conditions, none = no displacement at 100 μM, read-out: IC50 (μM) [3H]BTX binding

SMILES | ethanol withdrawal seizure severity [1] | IC50 [4] | IC50 [3, 8] | IC50 [3, 9] | other results
O=C(O)c1cc(O)c2ccc(Cl)cc2n1 [7-Cl kynurenic acid] | did not significantly reduce seizure severity | – | – | – | –
O=C(O)c1cc(=O)c2c(Cl)cc(Cl)cc2[nH]1 [5,7-DCKA, 5,7-dichlorokynurenate, reference compound] | – | 0.11 µM | – | – | reversal by glycine of inhibition of NMDA-induced currents [2]: competitively antagonizes NMDA receptors regardless of subunit composition; IC50 (μM) [3H]BTX binding ([3]; non-depolarizing conditions, none = no displacement at 100 μM): none; reversal by glycine of inhibition of NMDA-induced currents [5]: competitively antagonizes NMDA receptors regardless of subunit composition
NC1CCN(O)C1=O (racemic) [(±)HA-966, 3-amino-1-hydroxypyrrolidin-2-one] | did not significantly reduce seizure severity | – | – | – | rotarod performance (ataxia/incoordination) (naive C57BL/6 mice): impaired in their ability to remain on the rotarod at all time points tested
CN1C(=O)CN=C(c2ccccc2)c2cc(Cl)ccc21 [diazepam, reference compound] | – | – | – | – | duration of ethanol-induced loss of righting reflex (LORR) (Swiss-Webster mice): significant (*P<0.05) enhancement; rotarod performance (ataxia/incoordination) (naive Swiss-Webster mice): produced significant incoordination
NC(=O)N1c2ccccc2C=Cc2ccccc21 [Carbamazepine, carbamazepine, reference compound] | no significant reduction of severity or the duration of the signs of withdrawal | – | 56 µM | 71 µM | IC50 (μM) [3H]5,7-DCKA binding [6]: none*
COc1ccccc1N(C(=O)Nc1cc(C(=O)O)nc2cc(Cl)cc(Cl)c12)c1ccccc1 [MeO-DCUKA] | – | 35 µM | 30 µM | 64 µM | KA-induced increase in HSP72 protein levels [7]: prevented
